The results in this text go back to ChEMBL document CHEMBL4190258, “Spirograterpene A, a Tetracyclic Spiro-Diterpene with a Fused 5/5/5/5 Ring System from the Deep-Sea-Derived Fungus Penicillium granulatum MCCC 3A00475” (J Nat Prod, 2017).

The subject of assay [1] is RBL-2H3. Description: Antiallergic activity in DNP-BSA-stimulated rat RBL2H3 cells assessed as inhibition of anti-DNP-IgE-mediated degranulation by measuring beta-hexosaminidase activity at 20 microg/ml pre-incubated for 1 hr followed by DNP-BSA stimulation by fluorescence assay relative to control. The format is functional.
In assay [2] the test system is Staphylococcus aureus. Description: Antibacterial activity against methicillin-resistant Staphylococcus aureus incubated for 18 hrs by broth microdilution method. The format is functional.
Assay [3] deals with HL-60. Description: Cytotoxicity against human HL60 cells assessed as reduction in cell viability. The format is functional, cell-based.

In brackets after ≈: the same amount, converted by molar mass.

For `C[C@@H]1C[C@@H](O)[C@H](C)[C@@]12CCC1=C2C[C@@]2(C)CC[C@](C)(C(=O)O)[C@@H]12`, the inhibition at 20 µg/mL in assay [1] stood at 18%.
The same measure, in the same setting: with `C[C@H]1[C@H](O)CC(=O)[C@]2(C)CC[C@H]3[C@@H]4[C@@](C)(CO)CC[C@]4(C)C[C@]132` the figure was 4%.
Turning to `C[C@@H]1C=CC(=O)[C@@]2(C)CC[C@H]3[C@@]12C[C@]1(C)CCC(C)(C)[C@]31C`, the lowest concentration to inhibit growth in assay [2] (MIC) was 8 µg/mL (≈ 26.6 µM).
As for `C[C@@H]1C=CC(=O)[C@@]2(C)CC[C@@H]3[C@@H]4[C@@](C)(CC[C@@]4(C)CO)C[C@@]132`, the inhibition at 20 µg/mL in assay [1] was 10%. Also, the IC50 in assay [3] came to 38 nM.
As for `CCOC(=O)N1CCC(=C2c3ccc(Cl)cc3CCc3cccnc32)CC1` [LORATADINE], the inhibition at 20 µg/mL in assay [1] was found to be 35%.
